Consider six compounds from patent US20200061062A1, “INHIBITORS OF HUMAN PHOSPHATIDYLINOSITOL 3-KINASE DELTA” (ICOS Corporation, priority 2000, published 2020).

Data set [1] deals with T1, PI3Kα (Homo sapiens, UniProt P42336).
T1 construct: His tag (pFastbac HTb vector) (N); FLAG; made in house; host or cells: Sf21 insect cells (baculovirus)
As to the kind of experiment: Biochemical assay of PI3K potency and selectivity using 20 μM ATP, Alpha. The settings on record: for Alpha/Delta Ratio / IC50: 20 μM ATP; for Alpha/Delta Ratio: ratio of IC50 values, > = hypothetical ratio with 100 μM substituted for the missing IC50; for remaining activity at 100 µM: read-out: percent activity remaining at 100 μM, 20 μM ATP, 100 μM compound did not inhibit by at least 50%; for IC50: read-out: Alpha IC50. The text has this:
(§1) Recombinant PI3K heterodimeric complexes consisting of a p110 catalytic subunit and a p85 regulatory subunit were overexpressed using the BAC-TO-BAC® HT baculovirus expression system (GIBCO/BRL), and then purified for use in biochemical assays. The four Class I PI 3-kinases were cloned into baculovirus vectors as follows: […]

Data set [2] has as its target T2, PI3Kβ (Homo sapiens, UniProt P42338).
T2 construct: His tag (pFastbac HTa vector) (N); FLAG (N); made in house; host or cells: Sf21 insect cells (baculovirus)
As to the kind of experiment: Biochemical assay of PI3K potency and selectivity using 20 μM ATP, Beta. The settings on record: 20 μM ATP; for Beta/Delta Ratio: ratio of IC50 values, > = hypothetical ratio with 100 μM substituted for the missing IC50; for IC50: read-out: Beta IC50. On the procedure: Recombinant PI3K heterodimeric complexes consisting of a p110 catalytic subunit and a p85 regulatory subunit were overexpressed using the BAC-TO-BAC® HT baculovirus expression system (GIBCO/BRL), and then purified for use in biochemical assays. The four Class I PI 3-kinases were cloned into baculovirus vectors as follows:
The 3× substrate for the HTS contained 0.6 mM Na2ATP, 0.10 mCi/mL γ-[^32P]ATP (NEN, Pittsburgh, Pa.), 6 μM PIP2/PS liposomes (Avanti Polar Lipids, Inc., […].), in 20 mM HEPES, pH 7.4.

Data set [3] addresses T1, PI3Kα. As to the kind of experiment: Biochemical assay using 200 μM ATP, Alpha.
Data set [4] addresses T2, PI3Kβ. As to the kind of experiment: Biochemical assay using 200 μM ATP, Beta.
For data set [5], the target named is T3, PI3Kγ (Homo sapiens, UniProt P48736).
T3 construct: His tag (pFastbac HTb vector) (N); FLAG (N); made in house; host or cells: Sf21 insect cells (baculovirus)
The data set is described as follows: Biochemical assay using 200 μM ATP, Gamma.
Protocol: (§3) PI3Kδ catalyzes a phosphotransfer from γ-[^32P]ATP to PIP2/PS liposomes at the D3′ position of the PIP2 lipid inositol ring. This reaction is MgCl2 dependent and is quenched in high molarity potassium phosphate buffer pH 8.0 containing 30 mM EDTA. […] The reaction products (and all unlabelled products) are transferred to a 96-well, prewetted PVDF filter plate, filtered, and washed in high molarity potassium phosphate. Scintillant is added to the dried wells and the incorporated radioactivity is quantitated.
(§4) This dilution established a final concentration of 200 μM ATP in the reaction volume. The reaction was stopped with 150 μL quench buffer (1.0 M potassium phosphate pH 8.0, 30 mM EDTA). A portion of the quenched solution (180 μL) was then transferred to a PVDF filter plate (Millipore # MAIP NOB prewetted with sequential 200 μL washes of 100% methanol, water, and finally 1.0 M potassium phosphate pH 8.0 wash buffer).
(§5) The PVDF filter plate was aspirated under moderate vacuum (2-5 mm Hg), washed with 5×200 μL of wash buffer, and then dried by aspiration. The filter was subsequently blotted, allowed to air dry completely, and inserted into a Wallac counting cassette with 50 μL of Ecoscint scintillation cocktail added per well.
(§6) Subsequent selectivity assays were done similarly using the same 3× substrate stocks except they contained 0.05 mCi/mL γ[^32P]ATP and 3 mM PIP2. Subsequent selectivity assays also used the same 3× enzyme stocks, except they now contained 3 nM of any given PI3K isoform.
(§7) For all selectivity assays, the test compounds were weighed out and dissolved into 10-50 mM stocks in 100% DMSO (depending on their respective solubilities) and stored at −20° C. […] From these dilutions, 20 μL was added into the assay wells alongside water blanks used for the enzyme (positive) control and the no enzyme (background) control.
(§8) This selectivity protocol is identical to that described above, except the 3× stock ATP concentration was 600 μM.

The test system of data set [6] is Murine splenocytes (Balb/c). The data set is described as follows: B cell proliferation in response to cell surface IgM stimulation. In kind it is cell-based. The settings on record: Mus musculus, Splenocyte; stimulated B cell proliferation; read-out: Mouse BCR Stim (EC50). On the procedure:
In the above experiment, the B cells were stimulated using PANSORBIN®. The effect of D-000 on B cell proliferation response when they were stimulated through their cell surface IgM using anti-IgM antibody also was measured. Murine splenocytes (Balb/c) were plated into 96-well microtiter plates at 2×10^5 cells per well in 10% FBS/RPMI. Appropriate dilutions of test inhibitor in complete medium were added to the cells and the plates were incubated for 30-60 minutes prior to the addition of stimulus. Following the preincubation with test inhibitor an F(ab′)2 preparation of goat antibody specific for the μ-chain of mouse IgM was added to the wells at a final concentration of 25 μg/mL. The plates were incubated at 37° C. for 3 days and 1 μCi of [^3H]-thymidine was added to each well for the final four hours of culture. The plates were harvested onto fiber filters washed and the incorporation of radiolabel was determined using a beta counter (Matrix 96, Packard Instrument Co., Downers Grove, Ill.) and expressed as counts per minute (CPM).
(§2) Using the methods described in Examples 3-5, above, compounds of the invention were tested for inhibitory activity and potency in assays of stimulated B and T cell proliferation, neutrophil (PMN) migration, and neutrophil (PMN) elastase release. In Table 4, the values shown are effective concentrations of the compound (EC50; μM). Where no value is given, no assay was performed.

Data set [7] deals with T4, PI3Kδ (Homo sapiens, UniProt O00329, S253N). The data set is described as follows: Biochemical assay using 200 μM ATP, Delta.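 Note: radiometric filter-binding assay: PI3Kδ transfers ³²P from γ-[³²P]ATP onto PIP2/PS liposomes, counted by scintillation, enzyme-only wells as positive control, no-enzyme wells as background.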
Protocol: as §3, §4, §5, §6, §7, §8
Data set [8] deals with T4, PI3Kδ. The data set is described as follows: Biochemical assay of PI3K potency and selectivity using 20 μM ATP, Delta. Also noted: His tag (pFastbac HTb vector) (N); FLAG; made in house; host or cells: Sf21 insect cells (baculovirus). The settings on record: 20 μM ATP; read-out: Delta IC50.
From the text: as §1

Data set [9] relates to human neutrophils. As to the kind of experiment: Elastase exocytosis from neutrophils (fMLP-induced). The class given is cell-based. The settings on record: neutrophil (PMN) elastase release. On the procedure:
Aliquots (8 mL) of heparinized blood from healthy volunteers were layered on 3 mL cushions of 7.3% FICOLL® (Sigma, St. Louis, Mo.) and 15.4% HYPAQUE® (Sigma) and centrifuged at 900 rpm for 30 min at room temperature in a table top centrifuge (Beckman). The neutrophil-rich band just above the FICOLL®-HYPAQUE® cushion was collected and washed with Hanks' balanced salt solution (HBSS) containing 0.1% gelatin. Residual erythrocytes were removed by hypotonic lysis with 0.2% NaCl. The neutrophil preparation was washed twice with HBSS containing 0.1% gelatin and used immediately.
In addition to superoxide generation, activated neutrophils also respond by releasing several proteases that are responsible for the destruction of tissues and cartilage during inflammation. As an indication of protease release, the effect of D-000 on elastase exocytosis was measured. Elastase exocytosis was quantitated by modification of the procedure described by Ossanna et al. (J Clin Invest, 77:1939-1951 (1986)), as follows. Purified human neutrophils (0.2×10^6) (treated with either DMSO or a serial dilution of D-000 in DMSO) were stimulated with fMLP in PBS containing 0.01 mg/mL cytochalasin B, 1.0 μM sodium azide (NaN3), 5 μg/mL L-methionine and 1 μM fMLP for 90 min at 37° C. in a 96-well plate. At the end of the incubation period, the plate was centrifuged for 5 min at 1000 rpm, and 90 μL of the supernatant was transferred to 10 μL of 10 mM solution of an elastase substrate peptide, MeO-suc-Ala-Ala-Pro-Val-pNA, wherein MeO-suc=methoxy-succinyl; pNA=p-nitroanilide (Calbiochem, San Diego, Calif.). Absorbance at 410 nm was monitored for 2 hr in a 96-well plate reader. To measure the relative amounts of elastase excytosed, all absorbance values were normalized to the values without any inhibitor. […] Inhibition was half-maximal at a concentration of about 2-3 μM D-000.
as §2

Each structure is given as a SMILES string.

T1 sequence (P42336 whole entry): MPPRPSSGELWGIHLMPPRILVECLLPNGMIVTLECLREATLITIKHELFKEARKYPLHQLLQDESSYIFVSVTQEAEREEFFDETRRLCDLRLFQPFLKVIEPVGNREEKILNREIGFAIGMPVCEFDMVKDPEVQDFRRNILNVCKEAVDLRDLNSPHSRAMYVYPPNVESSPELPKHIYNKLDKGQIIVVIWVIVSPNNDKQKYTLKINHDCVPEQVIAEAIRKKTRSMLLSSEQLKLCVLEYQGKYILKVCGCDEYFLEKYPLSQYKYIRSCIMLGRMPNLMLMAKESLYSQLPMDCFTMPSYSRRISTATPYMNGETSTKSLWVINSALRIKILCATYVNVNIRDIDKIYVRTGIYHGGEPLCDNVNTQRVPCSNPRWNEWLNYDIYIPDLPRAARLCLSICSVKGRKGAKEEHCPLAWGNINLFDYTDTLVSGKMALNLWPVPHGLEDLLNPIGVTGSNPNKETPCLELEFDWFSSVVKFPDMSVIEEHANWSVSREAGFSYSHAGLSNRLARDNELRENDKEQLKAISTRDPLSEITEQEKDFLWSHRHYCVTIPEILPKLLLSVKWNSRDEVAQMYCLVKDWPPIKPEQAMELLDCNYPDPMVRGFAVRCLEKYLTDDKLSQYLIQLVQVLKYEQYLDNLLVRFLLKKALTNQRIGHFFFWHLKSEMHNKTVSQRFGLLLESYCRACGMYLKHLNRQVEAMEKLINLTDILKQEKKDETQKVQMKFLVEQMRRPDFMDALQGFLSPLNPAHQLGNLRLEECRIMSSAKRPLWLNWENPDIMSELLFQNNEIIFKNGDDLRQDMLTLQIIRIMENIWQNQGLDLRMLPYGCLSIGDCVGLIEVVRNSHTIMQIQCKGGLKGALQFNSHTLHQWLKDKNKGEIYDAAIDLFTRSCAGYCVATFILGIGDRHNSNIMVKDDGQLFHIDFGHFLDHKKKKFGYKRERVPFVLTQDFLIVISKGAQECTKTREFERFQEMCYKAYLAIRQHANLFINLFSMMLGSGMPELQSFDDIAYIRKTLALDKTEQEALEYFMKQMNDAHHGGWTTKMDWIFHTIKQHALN
T1 sequence (P27986 whole entry partner): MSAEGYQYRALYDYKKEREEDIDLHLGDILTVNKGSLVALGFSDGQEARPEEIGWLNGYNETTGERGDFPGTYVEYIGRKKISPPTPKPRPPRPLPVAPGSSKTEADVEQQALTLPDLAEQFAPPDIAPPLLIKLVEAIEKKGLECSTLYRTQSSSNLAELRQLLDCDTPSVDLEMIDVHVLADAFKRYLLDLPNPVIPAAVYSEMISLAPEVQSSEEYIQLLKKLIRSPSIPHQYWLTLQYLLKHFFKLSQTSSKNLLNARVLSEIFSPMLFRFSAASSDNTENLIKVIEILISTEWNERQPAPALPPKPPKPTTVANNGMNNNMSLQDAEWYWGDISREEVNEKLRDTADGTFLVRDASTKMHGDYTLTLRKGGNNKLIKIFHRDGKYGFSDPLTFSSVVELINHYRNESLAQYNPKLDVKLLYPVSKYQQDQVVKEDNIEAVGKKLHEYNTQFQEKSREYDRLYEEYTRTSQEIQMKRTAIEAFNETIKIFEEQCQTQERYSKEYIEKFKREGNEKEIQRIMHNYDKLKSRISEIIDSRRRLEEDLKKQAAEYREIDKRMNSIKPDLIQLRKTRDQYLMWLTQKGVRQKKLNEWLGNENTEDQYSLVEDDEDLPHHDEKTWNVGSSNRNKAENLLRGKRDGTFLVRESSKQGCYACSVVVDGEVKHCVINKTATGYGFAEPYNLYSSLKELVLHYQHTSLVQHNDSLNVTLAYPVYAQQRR
T2 sequence (P42338 whole entry): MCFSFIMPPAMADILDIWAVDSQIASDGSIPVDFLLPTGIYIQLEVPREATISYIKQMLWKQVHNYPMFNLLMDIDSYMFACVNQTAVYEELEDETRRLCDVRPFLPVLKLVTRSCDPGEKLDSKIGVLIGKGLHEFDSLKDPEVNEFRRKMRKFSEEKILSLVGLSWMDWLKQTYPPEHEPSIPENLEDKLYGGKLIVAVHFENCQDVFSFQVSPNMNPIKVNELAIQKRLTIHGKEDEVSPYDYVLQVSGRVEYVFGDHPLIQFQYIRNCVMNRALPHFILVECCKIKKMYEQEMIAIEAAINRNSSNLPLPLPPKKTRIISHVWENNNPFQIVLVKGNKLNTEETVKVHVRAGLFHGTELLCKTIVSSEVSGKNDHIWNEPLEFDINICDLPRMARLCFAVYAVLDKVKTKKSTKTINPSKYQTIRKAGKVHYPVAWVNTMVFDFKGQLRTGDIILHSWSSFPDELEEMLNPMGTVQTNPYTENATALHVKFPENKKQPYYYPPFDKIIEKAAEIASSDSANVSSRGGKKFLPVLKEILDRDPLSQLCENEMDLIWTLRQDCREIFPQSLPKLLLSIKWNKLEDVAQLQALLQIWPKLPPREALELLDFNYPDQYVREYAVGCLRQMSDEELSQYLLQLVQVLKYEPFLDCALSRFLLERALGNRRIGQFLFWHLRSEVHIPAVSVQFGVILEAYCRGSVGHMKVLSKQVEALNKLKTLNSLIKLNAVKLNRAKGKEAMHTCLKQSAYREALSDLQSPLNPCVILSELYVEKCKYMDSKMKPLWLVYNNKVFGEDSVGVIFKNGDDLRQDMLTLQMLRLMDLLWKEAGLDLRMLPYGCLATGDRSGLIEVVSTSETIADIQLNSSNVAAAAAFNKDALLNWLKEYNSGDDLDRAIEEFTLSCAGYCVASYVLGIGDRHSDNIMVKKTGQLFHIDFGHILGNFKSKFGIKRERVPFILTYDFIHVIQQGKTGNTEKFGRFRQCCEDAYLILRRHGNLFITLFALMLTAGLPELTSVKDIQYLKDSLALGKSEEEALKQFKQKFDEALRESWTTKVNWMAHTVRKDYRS
T2 sequence (P27986 whole entry partner): as the sequence (P27986 whole entry partner) above
T3 sequence (P48736 whole entry): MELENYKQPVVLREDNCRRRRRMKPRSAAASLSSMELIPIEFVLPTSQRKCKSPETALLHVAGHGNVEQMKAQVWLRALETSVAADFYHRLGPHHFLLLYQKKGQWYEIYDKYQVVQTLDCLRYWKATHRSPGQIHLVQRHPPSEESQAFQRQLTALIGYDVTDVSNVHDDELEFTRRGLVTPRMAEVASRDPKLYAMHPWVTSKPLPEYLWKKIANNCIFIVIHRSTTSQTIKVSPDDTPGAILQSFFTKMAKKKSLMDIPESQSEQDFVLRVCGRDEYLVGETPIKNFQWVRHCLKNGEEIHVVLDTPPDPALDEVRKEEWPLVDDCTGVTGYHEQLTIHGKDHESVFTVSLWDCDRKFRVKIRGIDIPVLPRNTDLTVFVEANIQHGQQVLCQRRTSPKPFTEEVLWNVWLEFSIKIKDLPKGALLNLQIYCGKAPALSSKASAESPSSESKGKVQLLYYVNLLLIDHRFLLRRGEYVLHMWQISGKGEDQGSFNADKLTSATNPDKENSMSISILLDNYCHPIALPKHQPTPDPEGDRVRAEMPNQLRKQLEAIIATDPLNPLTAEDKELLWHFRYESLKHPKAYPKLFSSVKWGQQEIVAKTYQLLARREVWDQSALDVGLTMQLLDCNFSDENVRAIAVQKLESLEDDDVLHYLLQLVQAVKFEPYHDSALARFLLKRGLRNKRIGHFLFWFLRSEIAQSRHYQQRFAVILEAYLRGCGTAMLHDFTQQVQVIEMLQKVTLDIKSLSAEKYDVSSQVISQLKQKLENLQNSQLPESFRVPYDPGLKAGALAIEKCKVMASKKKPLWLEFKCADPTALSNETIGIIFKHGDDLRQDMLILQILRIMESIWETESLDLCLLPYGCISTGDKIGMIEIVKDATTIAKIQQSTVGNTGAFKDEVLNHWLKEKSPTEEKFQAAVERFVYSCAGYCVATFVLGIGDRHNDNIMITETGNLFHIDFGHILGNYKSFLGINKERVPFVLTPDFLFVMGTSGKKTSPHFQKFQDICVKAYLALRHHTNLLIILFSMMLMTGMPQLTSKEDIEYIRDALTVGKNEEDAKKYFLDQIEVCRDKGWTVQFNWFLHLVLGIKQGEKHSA
T4 sequence (O00329 whole entry S253N): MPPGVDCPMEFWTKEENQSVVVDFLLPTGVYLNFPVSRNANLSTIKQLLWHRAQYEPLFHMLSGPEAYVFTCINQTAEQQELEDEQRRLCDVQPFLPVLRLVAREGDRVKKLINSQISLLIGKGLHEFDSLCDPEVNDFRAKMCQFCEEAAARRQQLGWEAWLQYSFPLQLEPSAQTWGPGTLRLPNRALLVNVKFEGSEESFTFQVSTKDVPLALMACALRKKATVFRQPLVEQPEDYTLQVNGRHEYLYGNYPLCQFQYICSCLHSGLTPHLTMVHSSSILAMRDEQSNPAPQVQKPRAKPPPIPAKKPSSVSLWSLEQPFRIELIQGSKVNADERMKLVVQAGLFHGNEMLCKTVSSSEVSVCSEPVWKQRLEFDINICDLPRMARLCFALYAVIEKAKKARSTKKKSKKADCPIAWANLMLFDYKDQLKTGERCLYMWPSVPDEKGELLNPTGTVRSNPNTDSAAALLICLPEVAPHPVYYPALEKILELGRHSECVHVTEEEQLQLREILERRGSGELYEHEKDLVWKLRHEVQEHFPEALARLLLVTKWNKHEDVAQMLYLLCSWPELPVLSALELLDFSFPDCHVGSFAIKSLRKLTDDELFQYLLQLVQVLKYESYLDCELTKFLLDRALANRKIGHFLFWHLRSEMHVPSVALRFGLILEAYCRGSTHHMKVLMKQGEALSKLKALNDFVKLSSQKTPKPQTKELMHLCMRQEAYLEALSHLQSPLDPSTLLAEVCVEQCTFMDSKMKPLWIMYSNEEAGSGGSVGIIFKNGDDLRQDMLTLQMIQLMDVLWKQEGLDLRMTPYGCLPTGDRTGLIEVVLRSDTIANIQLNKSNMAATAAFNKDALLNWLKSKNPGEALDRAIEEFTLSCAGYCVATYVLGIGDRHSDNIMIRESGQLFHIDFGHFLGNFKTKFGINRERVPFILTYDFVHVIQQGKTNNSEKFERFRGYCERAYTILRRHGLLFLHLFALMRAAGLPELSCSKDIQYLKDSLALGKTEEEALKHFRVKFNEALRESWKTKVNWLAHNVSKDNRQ
T4 sequence (P27986 whole entry partner): as the sequence (P27986 whole entry partner) above

Consider `O=c1c2ccccc2nc(CSc2ncnc3[nH]cnc23)n1-c1ccccc1` [Compound D-121, 3-phenyl-2-(9H-purin-6-ylsulfanylmethyl)-3H-quinazolin-4-one], for which the “Alpha/Delta Ratio” value in data set [1] is greater than 211; in [3], 158. In addition, the remaining activity at 100 µM in [1] worked out at 69%; in data set [2] (read-out: Beta: percent activity remaining at 100 μM, 100 μM compound did not inhibit by at least 50%), 70%. Besides, the results for the “Beta/Delta Ratio” value in data set [2] and in data set [4] were greater than 211 and 138, respectively. For the same compound, the “Gamma/Delta Ratio” value in data set [5] turned out to be 136. In [6], the EC50 was determined as 1.4 µM. The IC50 in [7] worked out at 0.9 µM; in data set [8] it was 0.48 µM.

As for `Nc1ncnc2c1ncn2Cc1nc2cccc(Cl)c2c(=O)n1-c1ccccc1F` [Compound D-012, 2-(6-Aminopurin-9-ylmethyl)-5-chloro-3-(2-fluorophenyl)-3H-quinazolin-4-one], the melting point was 295.6 to 295.8 °C (dec.). In data set [1], the “Alpha/Delta Ratio” value is reported as greater than 588 and the remaining activity at 100 µM was 69%. Further, in data set [2], the “Beta/Delta Ratio” value came out at 65 and the IC50 worked out at 11 µM. The “Alpha/Delta Ratio” value in [3] is listed as 107. In addition, in data set [4], the “Beta/Delta Ratio” value amounted to 83 and the IC50 was determined as 108 ± 4 µM. The “Gamma/Delta Ratio” value in [5] stood at 38. In data set [9], this compound yielded an EC50 of 0.3 µM. Also, in [6], the EC50 came out at 0.3 ± 0.2 µM. In addition, in data set [7], the IC50 worked out at 1.3 ± 0.4 µM. In addition, the IC50 in data set [8] was determined as 0.17 µM.

Compound `Cc1cccc2nc(CSc3ncnc4[nH]cnc34)n(-c3ccccc3F)c(=O)c12` [Compound D-031, 3-(2-Fluorophenyl)-5-methyl-2-(9H-purin-6-ylsulfanylmethyl)-3H-quinazolin-4-one] showed a melting point of 151.9 to 152.2 °C. Also, in [1], the “Alpha/Delta Ratio” value is given as greater than 833 and the IC50 came to 74 µM. For the same compound, in [2], the “Beta/Delta Ratio” value was 83 and the IC50 came out at 10 µM. For the same compound, the “Alpha/Delta Ratio” value in data set [3] is on record as 903. Also, in data set [4], the “Beta/Delta Ratio” value is listed as 707 and the IC50 came to 137 ± 23 µM. In data set [5], the “Gamma/Delta Ratio” value came out at 802 and the IC50 is 155 ± 60 µM. This compound displayed an EC50 in data set [9] of 0.7 ± 0.1 µM. Further, in data set [6], the EC50 was found to be 0.2 ± 0.1 µM. In data set [7], this compound showed an IC50 of 0.2 ± 0.01 µM. The IC50 in [8] came out at 0.12 µM.

The compound `O=c1c2cc(F)ccc2nc(CSc2ncnc3[nH]cnc23)n1-c1ccccc1Cl` [Compound D-028, 3-(2-Chlorophenyl)-6-fluoro-2-(9H-purin-6-ylsulfanylmethyl)-3H-quinazolin-4-one] showed a melting point of 232.8 to 233 °C. In data set [1], the “Alpha/Delta Ratio” value was greater than 556 and the remaining activity at 100 µM is 67%. Besides, in data set [2], the “Beta/Delta Ratio” value was found to be 69 and the IC50 turned out to be 13 µM. Besides, the “Alpha/Delta Ratio” value in data set [3] came out at 125. Moreover, in data set [4], the “Beta/Delta Ratio” value stood at 101. Besides, in [5], the “Gamma/Delta Ratio” value was found to be 18 and the IC50 was found to be 29 µM. Also, the response in data set [9] was half-maximal at 1 µM (EC50). Also, the EC50 in data set [6] was found to be 0.4 ± 0.2 µM. The same compound displayed an IC50 in data set [7] of 1.6 µM. In addition, the IC50 in data set [8] is 0.18 µM.

For the compound `O=c1c2cc(F)c(F)cc2nc(CSc2ncnc3[nH]cnc23)n1-c1ccccc1Cl` [Compound D-027, 3-(2-Chlorophenyl)-6,7-difluoro-2-(9H-purin-6-ylsulfanylmethyl)-3H-quinazolin-4-one], the melting point was determined as 207.8 °C. Also, in data set [1], the “Alpha/Delta Ratio” value is reported as greater than 169 and the remaining activity at 100 µM amounted to 59%. Moreover, in data set [2], the “Beta/Delta Ratio” value was 97 and the IC50 was 58 µM. Moreover, the “Alpha/Delta Ratio” value in [3] was 37. Moreover, in data set [4], the “Beta/Delta Ratio” value is reported as 26 and the IC50 amounted to 110 µM. Also, in data set [5], the “Gamma/Delta Ratio” value is on record as 15 and the IC50 was found to be 60 µM. For the same compound, in [9], a half-maximal response (EC50) required 2 µM. The EC50 in data set [6] is greater than 2 µM. Also, the IC50 in data set [7] turned out to be 4 µM. The IC50 in data set [8] is 0.6 µM.

The compound `Nc1ncnc2c1ncn2Cc1nc2cccc(Cl)c2c(=O)n1-c1ccccc1-c1ccccc1` [Compound D-009, 2-(6-Aminopurin-9-ylmethyl)-3-biphenyl-2-yl-5-chloro-3H-quinazolin-4-one] displayed a melting point of 299.9 to 300.1 °C. Further, in [1], the “Alpha/Delta Ratio” value is 683 and the IC50 is 82 µM. Further, in data set [2], the “Beta/Delta Ratio” value amounted to 50 and the IC50 is 5 µM. In [3], the “Alpha/Delta Ratio” value is listed as 200. Besides, in data set [4], the “Beta/Delta Ratio” value worked out at 26 and the IC50 is 18 µM. In addition, in [5], the “Gamma/Delta Ratio” value came out at 76 and the IC50 is 53 µM. In addition, the EC50 in [9] was determined as 10.5 µM. Moreover, the EC50 in [6] was 0.3 ± 0.2 µM. The IC50 in data set [7] is 0.7 µM. In data set [8], the IC50 worked out at 0.12 µM.
